Earlier results, collected in PMC2840068 (Vision research, 2009).

How the values were obtained:
[1] = tested on: VEGF; conditions: clinical trials in AMD patients; ref Gragoudas et al., 2004
[2] = tested on: VEGF; conditions: ref Chang et al., 2007, Rosenfeld et al., 2006

| Molecule | therapeutic dose response [1] | AMD patients’ vision [2] |
| --- | --- | --- |
| pegaptanib | inverse therapeutic dose response | – |
| ranibizumab: anti-VEGF antibody (ranibizumab) (antibody, chains of the INN, looked up, V domains shown) VH: EVQLVESGGGLVQPGGSLRLSCAASGYDFTHYGMNWVRQAPGKGLEWVGWINTYTGEPTYAADFKRRFTFSLDTSKSTAYLQMNSLRAEDTAVYYCAKYPYYYGTSHWYFDVWGQGTLVTVSS VL: DIQLTQSPSSLSASVGDRVTITCSASQDISNYLNWYQQKPGKAPKVLIYFTSSLHSGVPSRFSGSGSGTDFTLTISSLQPEDFATYYCQQYSTVPWTFGQGTKVEIK | – | improvement of AMD patients’ vision |
